Assays:
Assay type in all cases: biochemical
[1] = target: T1, γ-secretase (Aβ1-40 production) (Homo sapiens, UniProt P49768); assay: γ-Secretase assay, Aβ1-40 ELISA
T1 construct: made in house; host or cells: S-1 CHO cell line (Chinese hamster ovary)
Description: (§1) Purification of γ-Secretase and in Vitro γ-Secretase Assays—The following procedures can be used to isolate γ-secretase and measure its enzymatic activity. The multistep procedure for the high grade purification of human γ-secretase from the S-1 cells is performed as described previously (Fraering, P. C., et al. (2004) Biochemistry 43, 9774-9789). In vitro γ-secretase assays using the recombinant APP-based substrate C100FLAG and the recombinant Notch-based substrate N100FLAG are performed as reported previously (Esler, W. P., Kimberly, W. T., Ostaszewski, B. L., Ye, W., Diehl, T. S., Selkoe, D. J., and Wolfe, M. S. (2002) Proc. Natl. Acad. Sci. U.S.A. 99, 2720-2725, Kimberly, W. T., et al. (2003) Biochemistry 42, 137-144). Basically, the proteolytic reaction mixtures contain C100FLAG and N100FLAG substrate at a concentration of 1 μm, purified γ-secretase solubilized in 0.2% CHAPSO/HEPES, pH 7.5, at 10-fold dilution from stock (stock=the M2 anti-FLAG-eluted fraction in the purification protocol from S-1 cells (Fraering, P. C., et al. (2004) Biochemistry 43, 9774-9789)), 0.025% phosphatidylethanolamine (PE), and 0.10% phosphatidylcholine (PC). All the reactions are stopped by adding 0.5% SDS, and the samples are assayed for Aβ40 and Aβ42 by ELISA as described (Xia, W., Zhang, J., Ostaszewski, B. L., Kimberly, W. T., Seubert, P., Koo, E. H., Shen, J., and Selkoe, D. J. (1998) Biochemistry 37, 16465-16471). The capture antibodies are 2G3 (to Aβ residues 33-40) for the Aβ40 species and 21F12 (to Aβ residues 33-42) for the Aβ42 species.
(§2) Naphthyl Amine Alcohol Analogs and Assay Data—Compounds listed in Table 2 may be assayed as described herein (e.g., in Examples 3 and 4) and the specificity may be evaluated by comparing the relative inhibitions of C-100 Flag and N-100 Flag cleavage. The potency of the inhibitor may be evaluated with an Aβ1-40 ELISA assay (e.g., using an Aβ40 ELISA kit available from Invitrogen, Carlsbad, Calif.). […] The following table indicates the properties of certain compounds of the invention that were assayed as described herein. (INH=Inhibits)

[2] = target: T2, γ-secretase (C100FLAG APP-based substrate) (Homo sapiens, UniProt P49768); assay: In vitro γ-secretase assay, C-100 Flag (APP-based substrate) cleavage; conditions: effect on C-100 Flag cleavage; compounds tested in vitro at 100 μM
T2 construct: made in house; host or cells: S-1 CHO cell line (Chinese hamster ovary)
Description: as §1
(§3) Western Blotting and Antibodies—The following assay can be used to determine the extent to which the compounds of interest modulate the cleavage of APP and the Notch receptor. For Western analysis of PS1-NTF, PS1-CTF, Aph1α2-HA, FLAG-Pen-2, and NCT-GST, the samples are run on 4-20% Tris-glycine polyacrylamide gels, transferred to polyvinylidene difluoride, and can be probed with Ab14 (for PS1-NTF, 1:2000; a gift of S. Gandy), 13A11 (for PS1-CTF, 5 μg/ml; a gift of Elan Pharmaceuticals), 3F10 (for Aph1α2-HA, 50 ng/ml; Roche Applied Science), anti-FLAG M2 (for FLAG-Pen-2, 1:1000; Sigma), or αGST antibodies (for NCT-GST, 1:3000; Sigma). Samples from the γ-secretase activity assays (above) are run on 4-20% Tris-glycine gels and can be transferred to polyvinylidene difluoride membranes to detect AICD-FLAG with anti-FLAG M2 antibodies (1:1000, Sigma) and NICD-FLAG with Notch Ab1744 antibody (1:1000, Cell Signaling Technology), which is selective for the N terminus of NICD; the same samples are transferred to nitrocellulose membranes to detect Aβ with the anti-Aβ 6E10 antibody. Levels of AICD-FLAG and NICD-FLAG are estimated by densitometry using AlphaEase/Spot Denso (Alpha Innotech Corp.).
as §2

[3] = target: T3, γ-secretase (N100FLAG Notch-based substrate) (Homo sapiens, UniProt P49768); assay: In vitro γ-secretase assay, N-100 Flag (Notch-based substrate) cleavage; conditions: effect on N-100 Flag cleavage; compounds tested in vitro at 100 μM
T3 construct: made in house; host or cells: S-1 CHO cell line (Chinese hamster ovary)
Description: as §1, §3, §2

| SMILES | inhibition at 100 µM [1] | also measured |
| --- | --- | --- |
| CC(C)N(CCC(O)c1ccccc1)Cc1ccccc1 (stereo not shown) [Example 4] | 10% |  |
| OC(CCN(C1CCCCC1)C1CCCCC1)c1ccc2ccccc2c1 (stereo not shown) [Example 7] | 7% |  |
| C[C@H](CN1CCN(c2ccc(F)cc2)CC1)[C@H](O)c1ccc2ccccc2c1 [Example 90] |  | inhibition at 50 µM [1]: 0% |
| OC(CCNc1ccc(C(F)(F)F)cc1)c1ccc2ccccc2c1 (stereo not shown) [Example 24] | 0% |  |
| CC(C)N(CCC(O)c1ccc2ccccc2c1)Cc1cccc(C#N)c1 (stereo not shown) [Example 36] | 7% |  |
| OC(CCNc1ccc2c(c1)OCCO2)c1ccc2ccccc2c1 (stereo not shown) [Example 21] | 0% |  |
| CC(C)N(CCC(O)c1ccc2ccccc2c1)Cc1ccc(C#N)cc1 (stereo not shown) [Example 34] | 19% |  |
| CCN(CCC(O)c1ccc2ccccc2c1)Cc1ccccc1 (stereo not shown) [Example 12] | 0% | γ-Secretase Assay C-100 Flag [2]: Enh |
| CN(CCc1ccccc1)CCC(O)c1ccc2ccccc2c1 (stereo not shown) [Example 15] | 27% |  |
| CC(C)N(CCC(O)c1ccc2ccccc2c1)c1ccc(Cl)cc1 (stereo not shown) [Example 27] | 0% |  |
| OC(CCN(Cc1ccccc1)Cc1ccccc1)c1ccc2ccccc2c1 (stereo not shown) [Example 5] | 32% |  |
| CC(C)(C)N(CCC(O)c1ccc2ccccc2c1)Cc1ccccc1 (stereo not shown) [Example 11] | 0% |  |
| OC(CCNc1ccc(C2CCCCC2)cc1)c1ccc2ccccc2c1 (stereo not shown) [Example 22] | 0% |  |
| OC(CCN(Cc1ccccc1)C1CC1)c1ccc2ccccc2c1 (stereo not shown) [Example 37] | 36% |  |
| COc1cc(CN(CCC(O)c2ccc3ccccc3c2)C(C)C)cc(OC)c1 (stereo not shown) [Example 35] | 17% |  |
| COc1ccc(CN(CCC(O)c2ccc3ccccc3c2)C(C)C)cc1 (stereo not shown) [Example 29] | 55% | γ-Secretase Assay C-100 Flag [2]: Inh |
| CC(C)CN(CCC(O)c1ccc2ccccc2c1)CC(C)C (stereo not shown) [Example 9] | 0% |  |
| OC(CCN1CCC2(CC1)OCCO2)c1ccc2ccccc2c1 (stereo not shown) [Example 16] | 2% |  |
| C[C@@H](CN1CCN(c2ccc(F)cc2)CC1)[C@H](O)c1ccc2ccccc2c1 [Example 89] |  | inhibition at 50 µM [1]: 9% |
| COc1ccc(NCCC(O)c2ccc3ccccc3c2)cc1 (stereo not shown) [Example 25] | 0% |  |
| OC(CCNc1ccc(Cl)c(Cl)c1)c1ccc2ccccc2c1 (stereo not shown) [Example 23] | 0% |  |
| OC(CCNc1cc(F)ccc1F)c1ccc2ccccc2c1 (stereo not shown) [Example 28] | 0% |  |
| CN(CCC(O)c1ccc2ccccc2c1)Cc1ccccc1 (stereo not shown) [Example 8] |  | γ-Secretase Assay ELISA % Inhibition [100 μM] Aβ1-40 [1]: 15% |
| CN(CCC(O)c1ccc2ccccc2c1)c1ccc(Oc2ccccc2)cc1 (stereo not shown) [Example 26] | 6% |  |
| COc1ccc(N2CCN(CCC(O)c3ccc4ccccc4c3)CC2)cc1 (stereo not shown) [Example 2] | 0% | γ-Secretase Assay C-100 Flag [2]: No change (NC) |
| OC(CCNc1ccccc1)c1ccc2ccccc2c1 (stereo not shown) [Example 10] | 0% | γ-Secretase Assay C-100 Flag [2]: Enh |
| CC(CN(Cc1ccccc1)C(C)C)C(O)c1ccc2ccccc2c1 (stereo not shown) [Example 88] |  | γ-Secretase Assay ELISA % Inhibition [100 μM] Aβ1-40 [1]: 66%; γ-Secretase Assay C-100 Flag [2]: Inh |
| CC(CN(Cc1ccccc1)C(C)C)C(O)c1ccc2ccccc2c1 (stereo not shown) [Example 87] |  | γ-Secretase Assay ELISA % Inhibition [100 μM] Aβ1-40 [1]: 22% |
| OC(CCN1CCCCCCC1)c1ccc2ccccc2c1 (stereo not shown) [Example 6] | 20% |  |

Further lines, with some results ahead:

| inhibition at 100 µM [1] | SMILES | also measured |
| --- | --- | --- |
| 0% | COc1ccc(C(O)CCN(Cc2ccccc2)C(C)C)cc1OC (stereo not shown) [Example 59] |  |
| 0% | COc1ccc(NCCC(O)c2ccc(Cl)cc2)cc1 (stereo not shown) [Example 80] | γ-Secretase Assay C-100 Flag [2]: Enh |
| 48% | OC(CCNc1ccc(Oc2ccccc2)cc1)c1ccc2ccccc2c1 (stereo not shown) [Example 77] | γ-Secretase Assay C-100 Flag [2]: Inh |
| 46% | CC(C)(C)c1ccc(C(O)CCN2CCN(c3ccc(F)cc3)CC2)cc1 (stereo not shown) [Example 40] |  |
| 0% | CCOc1ccc(NCCC(O)c2ccc(F)cc2)cc1 (stereo not shown) [Example 79] | γ-Secretase Assay C-100 Flag [2]: Enh |
| 0% | COc1ccc(C(O)CCN(Cc2ccccc2)C(C)C)cc1F (stereo not shown) [Example 60] |  |
| 29% | Cc1ccc(C(O)CCN(Cc2ccccc2)C(C)C)cc1F (stereo not shown) [Example 54] | γ-Secretase Assay N-100 Flag [3]: Inh |
| 17% | CC(C)N(CCC(O)c1ccc(F)cc1)Cc1ccccc1 (stereo not shown) [Example 38] |  |
| 27% | CC(C)N(CCC(O)c1ccc(C(=O)O)cc1)Cc1ccccc1 (stereo not shown) [Example 67] |  |
| 30% | CC(C)N(CCC(O)c1cc(F)cc(Cl)c1)Cc1ccccc1 (stereo not shown) [Example 55] | γ-Secretase Assay N-100 Flag [3]: Inh |
| 1% | CC(C)N(CCC(O)c1ccc(OC(F)(F)F)cc1)Cc1ccccc1 (stereo not shown) [Example 58] |  |
| 0% | CC(C)N(CCC(O)c1ccc2c(c1)OCO2)Cc1ccccc1 (stereo not shown) [Example 62] |  |
| 0% | Cc1ccc(C(O)CCN(Cc2ccccc2)C(C)C)cc1C (stereo not shown) [Example 63] |  |
| 31% | CC(C)N(CCC(O)c1cccc(OCc2ccccc2)c1)Cc1ccccc1 (stereo not shown) [Example 53] |  |
| 50% | CC(C)N(CCC(Oc1ccc(C(F)(F)F)cc1)c1ccc2ccccc2c1)Cc1ccccc1 (stereo not shown) [Example 85] |  |
| 0% | CC(C)N(CCCC(O)c1cccc2ccccc12)Cc1ccccc1 (stereo not shown) [Example 45] |  |

| inhibition at 100 µM [1] | SMILES | also measured |
| --- | --- | --- |
| 12% | COC(CCN(Cc1ccccc1)C(C)C)c1ccc2cc(C(O)CCN(Cc3ccccc3)C(C)C)ccc2c1 (stereo not shown) [Example 86] |  |
| 0% | CC(C)N(CCC(O)c1ccc2ccccc2c1)Cc1ccc(F)c(Cl)c1 (stereo not shown) [Example 43] |  |
| 0% | Cc1ccc(NCCC(O)c2ccc3ccccc3c2)cc1F (stereo not shown) [Example 78] | γ-Secretase Assay C-100 Flag [2]: Enh |
| 2% | CC(C)N(CCCC(O)c1ccc2ccccc2c1)Cc1ccccc1 (stereo not shown) [Example 46] |  |
| 0% | Cc1cc(C)c(C(O)CCN(Cc2ccccc2)C(C)C)c(C)c1 (stereo not shown) [Example 49] |  |
| 51% | COC(CCN(Cc1ccccc1)C(C)C)c1ccc2ccccc2c1 (stereo not shown) [Example 84] | γ-Secretase Assay C-100 Flag [2]: Inh |
| 24% | CC(C)N(CCC(O)c1ccc(Oc2ccccc2)cc1)Cc1ccccc1 (stereo not shown) [Example 52] |  |
| 14% | OC(CCN1CCN(c2ccc(F)cc2)CC1)c1ccc(C(F)(F)F)cc1 (stereo not shown) [Example 39] |  |
| 17% | CC(C)N(CC[C@H](O)c1ccc2ccccc2c1)Cc1ccccc1 [Example 76] |  |
| 0% | OC(CCN1CCN(Cc2ccccc2)CC1)c1ccc2ccccc2c1 (stereo not shown) [Example 47] |  |
| 6% | CC(C)N(CCC(O)c1ccc(C#N)cc1)Cc1ccccc1 (stereo not shown) [Example 64] |  |
| 10% | COc1ccc2cc(C(O)CCN(Cc3ccccc3)C(C)C)ccc2c1 (stereo not shown) [Example 51] |  |
| 0% | CC(C)N(CCC(O)c1ccc(OC2CCCCO2)cc1)Cc1ccccc1 (stereo not shown) [Example 50] |  |
| 0% | CC(C)N(CCC(O)c1ccccc1CN1CCCCC1)Cc1ccccc1 (stereo not shown) [Example 61] |  |
| 0% | COc1cccc2cc(C(O)CCN(Cc3ccccc3)C(C)C)oc12 (stereo not shown) [Example 70] |  |
| 2% | CC(C)N(CCC(O)c1ccc2ccccc2c1)Cc1ccc(C(=O)O)cc1 (stereo not shown) [Example 66] |  |

Source: patent publication US20100286164A1, “SUBSTITUTED ARYL ALKYLAMINO-OXY-ANALOGS AND USES THEREOF” (The Brigham and Women's Hospital, Inc, priority 2007, published 2010)
